Laboratory results published in patent US20060188903A1, “Implantation serine proteinases” (priority 2001, published 2006).

Assays:
[1] = test system: ISP1 transcripts; assay: RT-PCR of ISP1 transcripts in oligodeoxynucleotide-treated blastocysts; format: cell-based, mouse; details: after eight hours of culture
Protocol: The presence of ISP1 transcripts in embryos and placentas was monitored using RT-PCR. Total RNA (1 μg) was reverse transcribed and amplified using ISP1 specific primers (ISP1 for 5′-[…]-3′; SEQ ID NO:9 and ISP1rev 5′-GTCAAAGATGGCCACAGC-3+: SEQ ID NO: 10) and forty rounds of thermal cycling (1 min at 94° C., 2 min at 60° C., and 2 min at 72° C.). The RT-PCR amplification of GAPDH (as a control for mRNA loading) is described elsewhere (Arcellana-Panlilio and Schultz, 1993). The predicted 175 and 380 bp amplification products were separated on a 2% (w/v) agarose gel.
(§1) In antisense oligodeoxynucleotide studies, harvested blastocysts were placed in 0.001% (v/v) L-a-lysophosphatidylcholine for 60 seconds (Jones et al., 1997) and were transferred to microdrops equilibrated with 2.5 μM, 5 μM oligodeoxynucleotide or an equal volume of H2O (Behrendtsen et al., 1995). Two antisense oligodeoxynucleotides were designed against regions surrounding ISP1's initiation codon: AS1 (5′-[…]-3′; SEQ ID NO;13) situated upstream, AS2 (5′-[…]-3′; SEQ ID NO:14) lying downstream. A control oligodeoxynucleotide, SS1 (5′-[…]-3′; SEQ ID NO:15), represented the scrambled sense sequence surrounding the initiation codon. […] Blastocysts were scored at 20, 30, 40, and 60 hours for progress in hatching. […] Progress in outgrowth was monitored over a period of 5 days.

[2] = test system: Mouse Blastocysts; assay: In vitro blastocyst hatching after oligodeoxynucleotide administration; format: cell-based; details: for Percent Hatched over Time: 100 blastocysts; for effect on blastocyst hatching (in words): scored at 20, 30, 40 and 60 hours
Protocol: (§2) Morulae were collected from oviducts of superovulated, 2.5 day pregnant dams in M2 medium (Hogan et al., 1994). For hatching, morulae were cultured in microwells for approximately 24 hrs at 37° C., 5% CO2 in KSOMaa medium (Erbach et al., 1994). In embryo outgrowth, hatched blastocysts were cultured for an additional 48 hrs at 37° C., 5% CO2 in Dulbecco's Modified Eagle's Medium plus 5% (v/v) fetal bovine serum on microwells coated with extracellular matrix derived from 10% (v/v) Triton X-100-treated mouse embryo fibroblasts (Behrendtsen et al., 1995).
In antisense oligodeoxynucleotide studies, harvested blastocysts were placed in 0.001% (v/v) L-a-lysophosphatidylcholine for 60 seconds (Jones et al., 1997) and were transferred to microdrops equilibrated with 2.5 μM, 5 μM oligodeoxynucleotide or an equal volume of H2O (Behrendtsen et al., 1995). Two antisense oligodeoxynucleotides were designed against regions surrounding ISP1's initiation codon: AS1 (5′-[…]-3′; SEQ ID NO;13) situated upstream, AS2 (5′-[…]-3′; SEQ ID NO:14) lying downstream. A control oligodeoxynucleotide, SS1 (5′-[…]-3′; SEQ ID NO:15), represented the scrambled sense sequence surrounding the initiation codon. The oligodeoxynucleotides were designed using Oligo™ software and were synthesized and purified by Dr. Richard Pon, UC DNA Services (University of Calgary). Blastocysts were scored at 20, 30, 40, and 60 hours for progress in hatching. […] Following eight hours of treatment, some blastocysts were assayed for the presence of ISP1 transcripts using RT-PCR. Following 24 hours of treatment, some blastocysts were assayed for strypsin activity using histochemical staining. In outgrowth studies, blastocysts were allowed to hatch and then transferred to microdrops equilibrated with oligodeoxynucleotide or water. Progress in outgrowth was monitored over a period of 5 days.
A possible role for ISP1 in hatching was examined by determining whether ISP1 mRNA could be reduced in blastocysts by treatment with antisense oligodeoxynucleotides (Behrendtsen et al., 1995; Jones et al., 1997) and result in an alteration of the hatching process. Two antisense oligodeoxynucleotides were designed surrounding ISP1's initiation codon covering the region immediately upstream (AS1) and downstream (AS2). A control oligodeoxynucleotide (SS1) represented the scrambled sense sequence surrounding the initiation codon. Blastocysts were scored at 20, 30, 40, and 60 hours for progress in hatching.

[3] = test system: hatched blastocysts; assay: Blastocyst outgrowth on extracellular matrix after hatching; format: cell-based, mouse; details: prehatched blastocysts in culture with oligodeoxynucleotide
Protocol: as §2, §1

[4] = test system: strypsin; assay: Histochemical staining of strypsin activity in blastocysts; format: cell-based, mouse; details: 24 hours of treatment
Protocol: Whole embryo RNA in situ hybridization using digoxigenin-labelled RNA probes was performed essentially as previously described (Rancourt and Rancourt, 1997). The ISP1 probe comprised the 478 bp RT-PCR subclone in pBSKS^+. The ISP2 probe also comprised a 478 by RT-PCR subclone in pBSKS^+. The antisense probes were synthesized using T3 polymerase after plasmid linearization with EcoRI. The sense probes were synthesized using T7 polymerase after plasmid linearization with BamHI. All experiments were performed with the sense RNA probe in parallel to detect non-specific hybridization. Histochemical staining of strypsin activity was performed essentially as outlined previously (Perona and Wassarman, 1986). Embryos were collected as early blastocysts in M2 medium, and were lightly fixed in 1.25% (w/v) glutaraldehyde in 0.25M sucrose, 50 mM sodium phosphate (pH7.5) for five min at 4° C. Following fixation, the blastocysts were placed in 50 mM sodium phosphate (pH7.5) containing the substrate N-α-benzoyl-DL-arginine β-napthylamide (0.56 mM; Sigma) and Fast Garnet GBC salt (1.86 mM; Sigma), were incubated for 5 min at room temperature and washed in 50 mM sodium phosphate (pH7.5).
as §1

[5] = test system: ISP2 mRNA; assay: Uterine ISP2 gene expression by in situ hybridization in hormone- or RU486-treated mice; format: in vivo, mouse; details: for induction of ISP2 gene expression: after ovariectomy without progesterone maintenance, up to 14 days; for maintenance of ISP2 gene expression: delayed implantation after ovariectomy
Protocol: All surgical procedures were carried out after the mice were anaesthetized with an i.p. injection of Avertin (2% (w/v) tribromoethanol; Aldrich Chemical Co. Milwaukee, Wis.). Ovariectomy was performed by dorsal-lateral incision (Hogan et al., 1994). Ovariectomized mice were allowed at least 1 wk for recovery before the induction of deciduomas. All steroid hormones including RU486 were dissolved in sesame oil and injected s.c. At each stage of the experiment, control mice were used which received only oil (0.1 ml/mouse) injections. The standard regimen for artificial induction of deciduomas (Finn, 1966) was modified to more closely mimic pseudo-pregnancy (Milligan, 1995). Here, the first progesterone treatment was started […] after exposure to oestrogen. This modified regimen consisted of 100 ng oestrogen daily starting on Day 0, and 1 mg progesterone plus 10 ng oestrogen from day three onward. Deciduomas were induced surgically on Day 5 (between 1400-1600 h) by injecting sesame oil (10 μl) into the lumen of one uterine horn from its oviductal tip. Injected and uninjected horns were collected 24, 48 or 72 hours later for histological sectioning and in situ hybridization analysis.
Delayed implantation was induced and maintained by ovariectomising mice on day 3 of pregnancy, followed by administration of progesterone (2 mg/mouse) on days 4 to 6. Subsequently, half these mice were treated with estrogen (25 ng/mouse) on the morning of the seventh day, while the other half received the normal progesterone injection. Mice were sacrificed 24 hours later for analysis by in situ hybridization.
The effect of steroids on uterine development in the absence of blastocysts was examined by ovariectomizing mice and treating them with hormone injections after a two week recovery period. They received injections of either progesterone (1 mg/mouse), estrogen (100 ng/mouse), or a combination of both (10 ng estrogen and 1 mg progesterone/mouse) for three days. Mice were then sacrificed on the morning of the fourth day. To further determine the importance of progesterone on ISP2 gene expression superovulated pregnant and pseudo-pregnant mice (Hogan et al., 1994) were treated with RU486 (400 μg/mouse) on the morning of the third day after a vaginal plug was detected. The mice were then sacrificed 24 hours later and their uterine horns were collected for in situ hybridization analysis.
Whole embryo RNA in situ hybridization using digoxigenin-labelled RNA probes was performed essentially as previously described (Rancourt and Rancourt, 1997). The ISP1 probe comprised the 478 bp RT-PCR subclone in pBSKS^+. The ISP2 probe also comprised a 478 by RT-PCR subclone in pBSKS^+. The antisense probes were synthesized using T3 polymerase after plasmid linearization with EcoRI. […]

Molecule | reduction of accumulation of ISP1 transcripts [1] | Percent Hatched over Time ([2]; 2.5 µM, 20 hours) | Percent Hatched over Time ([2]; 2.5 µM, 30 hours) | Percent Hatched over Time ([2]; 2.5 µM, 40 hours) | Percent Hatched over Time ([2]; 2.5 µM, 60 hours) | Percent Hatched over Time ([2]; 5.0 µM, 20 hours) | Percent Hatched over Time ([2]; 5.0 µM, 30 hours) | Percent Hatched over Time ([2]; 5.0 µM, 40 hours) | Percent Hatched over Time ([2]; 5.0 µM, 60 hours) | effect on blastocyst hatching (in words) [2] | time to adhere to extracellular matrix [3] | strypsin activity at the abembryonic pole (histochemical) [4] | strypsin activity at the abembryonic pole (histochemical) ([4]; listed as antisense oligodeoxynucleotide) | ISP1 transcript levels (in words) ([1]; versus untreated controls) | induction of ISP2 gene expression [5] | maintenance of ISP2 gene expression [5]
AS1: antisense oligodeoxynucleotide upstream of ISP1's initiation codon, 5′-TCTAACTACCGTCTAACAACG-3′; SEQ ID NO:13 (DNA, backbone and methylation of C not given here) | at least 100 fold | 0% | 0% | 16% | 37% | 10% | 10% | 20% | 20% | interfered specifically with blastocyst hatching | 5 days | reduced strypsin activity | strypsin activity was absent |  |  | 
AS2: antisense oligodeoxynucleotide downstream of ISP1's initiation codon, 5′-GAACTCTTCTAACTACCGTCT-3′; SEQ ID NO:14 (DNA, backbone and methylation of C not given here) |  | 0% | 20% | 35% | 40% | 0% | 5% | 35% | 45% | interfered specifically with blastocyst hatching |  |  |  |  |  | 
SS1: control oligodeoxynucleotide, scrambled sense sequence surrounding the ISP1 initiation codon, 5′-ACGGTAGTTAGAAGAGTTCT-3′; SEQ ID NO:15 (DNA, backbone and methylation of C not given here) [reference compound] |  | 10% | 16% | 58% | 90% | 10% | 39% | 61% | 77% |  | 2 days | localized strypsin activity was observed |  | significant reduction was not observed |  | 
CC(=O)[C@H]1CC[C@H]2[C@@H]3CCC4=CC(=O)CC[C@]4(C)[C@H]3CC[C@]12C [progesterone] |  |  |  |  |  |  |  |  |  |  |  |  |  |  | could be induced | normal ISP2 expression was observed
estrogen |  |  |  |  |  |  |  |  |  |  |  |  |  |  | did not have a stimulatory effect | not observed
